In PubChem BioAssay (NCI):
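Abbreviation: GI50, concentration required for 50% inhibition of growth. Definition used: TGI = concentration required for complete inhibition of growth.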

Columns and labels:
Assay in all cases: growth of human tumour cells (NCI), 384-well format
[1] = test system: HCT-15 colon
[2] = test system: U251 glioblastoma
[3] = test system: MDA-MB-231 breast
[4] = test system: T-47D breast
[5] = test system: SR leukemia
[6] = test system: RXF 393 renal
[7] = test system: A498 renal
[8] = test system: DU-145 prostate
[9] = test system: HT29 colon
[10] = test system: HOP-62 NSCLC
[11] = test system: OVCAR-3 ovarian
[12] = test system: SN12C renal
[13] = test system: UACC-257 melanoma
[14] = test system: M14 melanoma
[15] = test system: SK-MEL-2 melanoma
[16] = test system: MDA-MB-435 melanoma
[17] = test system: MDA-MB-468 breast
[18] = test system: HOP-92 NSCLC
[19] = test system: NCI-H460 NSCLC
[20] = test system: A549 NSCLC
[21] = test system: PC-3 prostate
[22] = test system: SF-268 CNS
[23] = test system: EKVX NSCLC
[24] = test system: SF-295 CNS
[25] = test system: RPMI-8226 leukemia
[26] = test system: IGROV1 ovarian
[27] = test system: COLO 205 colon
[28] = test system: OVCAR-5 ovarian
[29] = test system: HCC-2998 colon
[30] = test system: BT-549 breast
[31] = test system: MOLT-4 leukemia
[32] = test system: HS 578T breast
[33] = test system: CCRF-CEM leukemia
[34] = test system: 786-0 renal
[35] = test system: SK-MEL-5 melanoma
[36] = test system: NCI/ADR-RES ovarian
[37] = test system: NCI-H23 lung
[38] = test system: TK-10 renal
[39] = test system: SF-539 CNS
[40] = test system: HL-60(TB) leukemia
[41] = test system: NCI-H322M lung
[42] = test system: NCI-H522 lung
[43] = test system: OVCAR-4 ovarian
[44] = test system: KM12 colon
[45] = test system: SW-620 colon
[46] = test system: SK-OV-3 ovarian
[47] = test system: UACC-62 melanoma
[48] = test system: NCI-H226 lung
[49] = test system: CAKI-1 renal
[50] = test system: MCF7 breast
[51] = test system: OVCAR-8 ovarian
[52] = test system: SK-MEL-28 melanoma
[53] = test system: MALME-3M melanoma
[54] = test system: ACHN renal
[55] = test system: SNB-19 CNS

Question: `Cn1cc(C[C@@H](N)C(=O)O)c2ccccc21` was tested. Which GI50 [1] did it give?
Answer: > 100 µM

Question: What about the TGI [1] of the same molecule?
Answer: > 100 µM

Question: What about the GI50 [2] of the same molecule?
Answer: > 100 µM

Question: What about the TGI [2] of the same molecule?
Answer: > 100 µM

Question: What about the GI50 [3] of the same molecule?
Answer: > 100 µM

Question: And the TGI [3]?
Answer: > 100 µM

Question: And the GI50 [4]?
Answer: > 100 µM

Question: What about the TGI [4] of the same molecule?
Answer: > 100 µM

Question: And the GI50 [5]?
Answer: > 100 µM

Question: What about the TGI [5] of the same molecule?
Answer: > 100 µM

Question: And the GI50 [6]?
Answer: > 100 µM

Question: What about the TGI [6] of the same molecule?
Answer: > 100 µM

Question: What about the GI50 [7] of the same molecule?
Answer: > 100 µM

Question: And the TGI [7]?
Answer: > 100 µM

Question: And the GI50 [8]?
Answer: > 100 µM

Question: And the TGI [8]?
Answer: > 100 µM

Question: And the GI50 [9]?
Answer: > 100 µM

Question: What about the TGI [9] of the same molecule?
Answer: > 100 µM

Question: What about the GI50 [10] of the same molecule?
Answer: > 100 µM

Question: And the TGI [10]?
Answer: > 100 µM

Question: What about the GI50 [11] of the same molecule?
Answer: > 100 µM

Question: And the TGI [11]?
Answer: > 100 µM

Question: What about the GI50 [12] of the same molecule?
Answer: > 100 µM

Question: And the TGI [12]?
Answer: > 100 µM

Question: What about the GI50 [13] of the same molecule?
Answer: > 100 µM

Question: And the TGI [13]?
Answer: > 100 µM

Question: And the GI50 [14]?
Answer: > 100 µM

Question: What about the TGI [14] of the same molecule?
Answer: > 100 µM

Question: And the GI50 [15]?
Answer: > 100 µM

Question: What about the TGI [15] of the same molecule?
Answer: > 100 µM

Question: And the GI50 [16]?
Answer: > 100 µM

Question: What about the TGI [16] of the same molecule?
Answer: > 100 µM

Question: And the GI50 [17]?
Answer: > 100 µM

Question: What about the TGI [17] of the same molecule?
Answer: > 100 µM

Question: What about the GI50 [18] of the same molecule?
Answer: > 100 µM

Question: What about the TGI [18] of the same molecule?
Answer: > 100 µM

Question: And the GI50 [19]?
Answer: > 100 µM

Question: What about the TGI [19] of the same molecule?
Answer: > 100 µM

Question: What about the GI50 [20] of the same molecule?
Answer: > 100 µM

Question: What about the TGI [20] of the same molecule?
Answer: > 100 µM

Question: What about the GI50 [21] of the same molecule?
Answer: > 100 µM

Question: And the TGI [21]?
Answer: > 100 µM

Question: What about the GI50 [22] of the same molecule?
Answer: > 100 µM

Question: And the TGI [22]?
Answer: > 100 µM

Question: What about the GI50 [23] of the same molecule?
Answer: > 100 µM

Question: And the TGI [23]?
Answer: > 100 µM

Question: What about the GI50 [24] of the same molecule?
Answer: > 100 µM

Question: What about the TGI [24] of the same molecule?
Answer: > 100 µM

Question: What about the GI50 [25] of the same molecule?
Answer: > 100 µM

Question: And the TGI [25]?
Answer: > 100 µM

Question: And the GI50 [26]?
Answer: > 100 µM

Question: What about the TGI [26] of the same molecule?
Answer: > 100 µM

Question: And the GI50 [27]?
Answer: > 100 µM

Question: What about the TGI [27] of the same molecule?
Answer: > 100 µM

Question: And the GI50 [28]?
Answer: > 100 µM

Question: And the TGI [28]?
Answer: > 100 µM

Question: What about the GI50 [29] of the same molecule?
Answer: > 100 µM

Question: What about the TGI [29] of the same molecule?
Answer: > 100 µM

Question: What about the GI50 [30] of the same molecule?
Answer: > 100 µM

Question: And the TGI [30]?
Answer: > 100 µM

Question: What about the GI50 [31] of the same molecule?
Answer: > 100 µM

Question: And the TGI [31]?
Answer: > 100 µM

Question: And the GI50 [32]?
Answer: > 100 µM

Question: And the TGI [32]?
Answer: > 100 µM

Question: What about the GI50 [33] of the same molecule?
Answer: > 100 µM

Question: And the TGI [33]?
Answer: > 100 µM

Question: What about the GI50 [34] of the same molecule?
Answer: > 100 µM

Question: What about the TGI [34] of the same molecule?
Answer: > 100 µM

Question: What about the GI50 [35] of the same molecule?
Answer: > 100 µM

Question: What about the TGI [35] of the same molecule?
Answer: > 100 µM

Question: And the GI50 [36]?
Answer: > 100 µM

Question: What about the TGI [36] of the same molecule?
Answer: > 100 µM

Question: And the GI50 [37]?
Answer: > 100 µM

Question: What about the TGI [37] of the same molecule?
Answer: > 100 µM

Question: And the GI50 [38]?
Answer: > 100 µM

Question: What about the TGI [38] of the same molecule?
Answer: > 100 µM

Question: And the GI50 [39]?
Answer: > 100 µM

Question: What about the TGI [39] of the same molecule?
Answer: > 100 µM

Question: And the GI50 [40]?
Answer: > 100 µM

Question: And the TGI [40]?
Answer: > 100 µM

Question: And the GI50 [41]?
Answer: > 100 µM

Question: And the TGI [41]?
Answer: > 100 µM

Question: What about the GI50 [42] of the same molecule?
Answer: > 100 µM

Question: And the TGI [42]?
Answer: > 100 µM

Question: What about the GI50 [43] of the same molecule?
Answer: > 100 µM

Question: And the TGI [43]?
Answer: > 100 µM

Question: And the GI50 [44]?
Answer: > 100 µM

Question: What about the TGI [44] of the same molecule?
Answer: > 100 µM

Question: What about the GI50 [45] of the same molecule?
Answer: > 100 µM

Question: What about the TGI [45] of the same molecule?
Answer: > 100 µM

Question: What about the GI50 [46] of the same molecule?
Answer: > 100 µM

Question: And the TGI [46]?
Answer: > 100 µM

Question: What about the GI50 [47] of the same molecule?
Answer: > 100 µM

Question: What about the TGI [47] of the same molecule?
Answer: > 100 µM

Question: What about the GI50 [48] of the same molecule?
Answer: > 100 µM

Question: And the TGI [48]?
Answer: > 100 µM

Question: What about the GI50 [49] of the same molecule?
Answer: > 100 µM

Question: What about the TGI [49] of the same molecule?
Answer: > 100 µM

Question: And the GI50 [50]?
Answer: > 100 µM

Question: What about the TGI [50] of the same molecule?
Answer: > 100 µM

Question: And the GI50 [51]?
Answer: > 100 µM

Question: What about the TGI [51] of the same molecule?
Answer: > 100 µM

Question: And the GI50 [52]?
Answer: > 100 µM

Question: And the TGI [52]?
Answer: > 100 µM

Question: And the GI50 [53]?
Answer: > 100 µM

Question: And the TGI [53]?
Answer: > 100 µM

Question: What about the GI50 [54] of the same molecule?
Answer: > 100 µM

Question: What about the TGI [54] of the same molecule?
Answer: > 100 µM

Question: What about the GI50 [55] of the same molecule?
Answer: > 100 µM

Question: What about the TGI [55] of the same molecule?
Answer: > 100 µM
